In the NIST ThermoML archive (doi:10.1016/j.jct.2018.02.022):
Values joined by “and” are separate entries in the source; they are usually repeats but may differ in a detail not shown here. Identical values can stand only once.

Assay: xn = mol fraction of the nth substance listed
Details: 303.15 K, 92.3 kPa, Liquid; for viscosity: Concentric cylinders viscometry; for speed of sound: Frequency=3 MHz, Single path-length method; for mass density: Vibrating tube method

CCO [ethanol] + O
Details | mass density | speed of sound [m/s] | viscosity [mPa·s]
x1 = 0.0024 | 994.464 kg/m3 | 1513.4 | –
x1 = 0.0201 | 986.86 kg/m3 | – | 0.9816
x1 = 0.0202 | 986.01 kg/m3 | 1541.3 | –
x1 = 0.0295 | 983.11 kg/m3 | 1555 | –
x1 = 0.0366 | 980.577 kg/m3 | 1564.9 | –
x1 = 0.0408 | 978.54 kg/m3 | – | 1.162
x1 = 0.0497 | 976.06 kg/m3 | – | 1.223
x1 = 0.0513 | 975.532 kg/m3 | 1583.5 | –
x1 = 0.06 | 971.89 kg/m3 and 972.787 kg/m3 | 1592.4 | 1.323
x1 = 0.0707 | 969.513 kg/m3 | 1601.4 | –
x1 = 0.0796 | 966.81 kg/m3 | – | 1.49
x1 = 0.0801 | 966.689 kg/m3 | 1607 | –
x1 = 0.0904 | 963.577 kg/m3 | 1610.8 | –
x1 = 0.0997 | 960.797 kg/m3 | 1611.9 | –
x1 = 0.1004 | 958.69 kg/m3 | – | 1.656
x1 = 0.1294 | 951.878 kg/m3 | 1602.7 | –
x1 = 0.1497 | 945.612 kg/m3 | 1588.3 | –
x1 = 0.1499 | 945.56 kg/m3 | – | 1.88
x1 = 0.1984 | 928.77 kg/m3 | – | 1.994
x1 = 0.2008 | 929.658 kg/m3 | 1540.8 | –
x1 = 0.2499 | 915.3 kg/m3 | – | 2.048
x1 = 0.2503 | 914.742 kg/m3 | 1493.5 | –
x1 = 0.2998 | 900.761 kg/m3 | 1450.6 | –
x1 = 0.3016 | 900.76 kg/m3 | – | 1.982
x1 = 0.3499 | 888.09 kg/m3 | – | 1.934
x1 = 0.3507 | 887.521 kg/m3 | 1411.8 | –
x1 = 0.399 | 876.09 kg/m3 | – | 1.863
x1 = 0.3992 | 875.988 kg/m3 | 1379.4 | –
x1 = 0.4495 | 865.03 kg/m3 | – | 1.783
x1 = 0.4514 | 864.712 kg/m3 | 1348.7 | –
x1 = 0.4989 | 855.7 kg/m3 | – | 1.697
x1 = 0.5002 | 854.622 kg/m3 | 1322.3 | –
x1 = 0.5494 | 845.433 kg/m3 | 1298.6 | –
x1 = 0.5495 | 846.35 kg/m3 | – | 1.636
x1 = 0.6018 | 836.274 kg/m3 | 1275.2 | –
x1 = 0.6067 | 835.6 kg/m3 | – | 1.528
x1 = 0.6503 | 828.55 kg/m3 and 828.435 kg/m3 | 1255.3 | 1.46
x1 = 0.6956 | 821.65 kg/m3 | – | 1.388
x1 = 0.7006 | 820.66 kg/m3 | 1235.5 | –
x1 = 0.7355 | 815.498 kg/m3 | 1222.2 | –
x1 = 0.75 | 813.63 kg/m3 | – | 1.315
x1 = 0.7843 | 809.09 kg/m3 | – | 1.272
x1 = 0.7965 | 807.074 kg/m3 | 1199.9 | –
x1 = 0.8433 | 800.833 kg/m3 | 1183.1 | –
x1 = 0.8475 | 801.24 kg/m3 | – | 1.201
x1 = 0.8864 | 795.58 kg/m3 | – | 1.141
x1 = 0.892 | 794.442 kg/m3 | 1165.4 | –
x1 = 0.9093 | 792.256 kg/m3 | 1159.2 | –
x1 = 0.9207 | 790.841 kg/m3 | 1155.2 | –
x1 = 0.929 | 789.85 kg/m3 | – | 1.086
x1 = 0.9307 | 789.562 kg/m3 | 1151.5 | –
x1 = 0.9398 | 788.477 kg/m3 | 1148.3 | –
x1 = 0.9483 | 787.394 kg/m3 | 1145.2 | –
x1 = 0.9603 | 785.958 kg/m3 | 1141.1 | –
x1 = 0.9702 | 784.743 kg/m3 | 1137.5 | –
x1 = 0.9801 | 783.417 kg/m3 | 1134.3 | –
x1 = 0.9895 | 782.456 kg/m3 | 1130.8 | –
x1 = 1 | 780.941 kg/m3 | 1126.4 | 0.992
